Laboratory results: patent publication US7417156B2, “Orally active, antimalarial, anticancer, artemisinin-derived trioxane dimers” (Johns Hopkins University, priority 2002, dated 2008)
Read-outs that look alike come from different tables or passages of the source.

How the values were obtained:
OVCAR-8 = assay: NCI 60 cell line panel screen (SRB); format: cell-based, human
MDA-MB231/ATCC = assay: NCI 60 cell line panel screen (SRB); format: cell-based, human
UACC-257 = assay: NCI 60 cell line panel screen (SRB); format: cell-based, human
SK-OV-3 = assay: NCI 60 cell line panel screen (SRB); format: cell-based, human
EKVX = assay: NCI 60 cell line panel screen (SRB); format: cell-based, human
HOP-62 = assay: NCI 60 cell line panel screen (SRB); format: cell-based, human; settings: HOP-62 (Non-Small Cell Lung Cancer)
SF-539 = assay: NCI 60 cell line panel screen (SRB); format: cell-based, human
NCI/ADR-RES = assay: NCI 60 cell line panel screen (SRB); format: cell-based, human
BT-549 = assay: NCI 60 cell line panel screen (SRB); format: cell-based, human
RXF 393 = assay: NCI 60 cell line panel screen (SRB); format: cell-based, human
MCF7 = assay: NCI 60 cell line panel screen (SRB); format: cell-based, human
SF-268 = assay: NCI 60 cell line panel screen (SRB); format: cell-based, human
CCRF-CEM = assay: NCI 60 cell line panel screen (SRB); format: cell-based, human; settings: CCRF-CEM (Leukemia)
[1] = test system: chloroquine-sensitive P. falciparum (NF54); assay: Antimalarial activity in vitro, [3H]hypoxanthine incorporation; format: cell-based

CC1CCC2C(C)C(CC(COC(=O)c3cc[n+]([O-])cc3)CC3OC4OC5(C)CCC6C(C)CCC(C3C)C46OO5)OC3OC4(C)CCC1C32OO4 (stereo not shown) [Compound 13, bis-trioxane primary alcohol isonicotinate N-oxide]
Log10LC50 (OVCAR-8; OVCAR-8 (Ovarian Cancer), LC50: PG=−50): >−4.30 log10M
Log10GI50 (OVCAR-8; Ovarian Cancer, OVCAR-8): −7.69
Log10GI50 (MDA-MB231/ATCC; Breast Cancer, MDA-MB231/ATCC): −7.64
Log10LC50 (MDA-MB231/ATCC; MDA-MB231/ATCC (Breast Cancer), LC50: PG=−50): −4.77 log10M
Log10TGI50 (MDA-MB231/ATCC; MDA-MB231/ATCC (Breast Cancer), TGI: PG=0): −6.32 log10M
Log10GI50 (UACC-257; Melanoma, UACC-257): −5.15
Log10LC50 (UACC-257; UACC-257 (Melanoma), LC50: PG=−50): >−4.30 log10M
Log10TGI50 (UACC-257; UACC-257 (Melanoma), TGI: PG=0): −4.65 log10M
Log10GI50 (SK-OV-3; Ovarian Cancer, SK-OV-3): −5.13
Log10LC50 (SK-OV-3; SK-OV-3 (Ovarian Cancer), LC50: PG=−50): −4.31 log10M
Log10TGI50 (SK-OV-3; SK-OV-3 (Ovarian Cancer), TGI: PG=0): −4.72 log10M
Log10LC50 (EKVX; EKVX (Non-Small Cell Lung Cancer), LC50: PG=−50): −4.59 log10M
Log10TGI50 (EKVX; EKVX (Non-Small Cell Lung Cancer), TGI: PG=0): −5.08 log10M
Log10GI50 (EKVX; Non-Small Cell Lung Cancer, EKVX): −8.19
Log10LC50 (HOP-62; LC50: PG=−50): −4.54 log10M
Log10TGI50 (HOP-62; TGI: PG=0): −4.91 log10M
Log10GI50 (SF-539; CNS Cancer, SF-539): <−8.30
Log10LC50 (SF-539; SF-539 (CNS Cancer), LC50: PG=−50): −4.56 log10M
Log10GI50 (NCI/ADR-RES; Breast Cancer, NCI/ADR-RES): −7.60
Log10LC50 (NCI/ADR-RES; NCI/ADR-RES (Breast Cancer), LC50: PG=−50): −4.65 log10M
Log10TGI50 (NCI/ADR-RES; NCI/ADR-RES (Breast Cancer), TGI: PG=0): −5.18 log10M
Log10LC50 (BT-549; BT-549 (Breast Cancer), LC50: PG=−50): −4.61 log10M
Log10TGI50 (BT-549; BT-549 (Breast Cancer), TGI: PG=0): −5.07 log10M
Log10GI50 (BT-549; Breast Cancer, BT-549): <−8.30
Log10LC50 (RXF 393; RXF 393 (Renal Cancer), LC50: PG=−50): >−4.30 log10M
Log10TGI50 (RXF 393; RXF 393 (Renal Cancer), TGI: PG=0): −4.69 log10M
Log10GI50 (RXF 393; Renal Cancer, RXF 393): −5.20
Log10GI50 (MCF7; Breast Cancer, MCF7): <−8.30
Log10LC50 (MCF7; MCF7 (Breast Cancer), LC50: PG=−50): −4.44 log10M
Log10TGI50 (MCF7; MCF7 (Breast Cancer), TGI: PG=0): −5.03 log10M
Log10GI50 (SF-268; CNS Cancer, SF-268): −5.29
Log10LC50 (SF-268; SF-268 (CNS Cancer), LC50: PG=−50): −4.31 log10M
Log10TGI50 (SF-268; SF-268 (CNS Cancer), TGI: PG=0): −4.80 log10M
Log10LC50 (CCRF-CEM; LC50: PG=−50): >−4.30 log10M
Log10TGI50 (CCRF-CEM; TGI: PG=0): >−4.30 log10M
IC50 [1]: sub-nanomolar
IC50 ([1]; Table I, NF54 strain, read-out: IC50): 0.53 nM
